Data published in patent US8324173B2, “Peptides useful as dual caspase-2/-6 inhibitors and their biological applications” (Chiesi Farmaceutici S.p.A., priority 2004, dated 2012).
Peptide text beside a SMILES is read from it.

Legend:
Format in all cases: biochemical
[1] = target: T1, human recombinant caspase-2 (Homo sapiens, UniProt P42575); experiment: In vitro caspase-2 cleavage assay (Ac-VDVAD-AMC substrate); design: key to Group (pattern of caspase-2 inhibition curve): group 1 referred to inhibitors that were relatively more active than VDVAD(SEQ ID NO:9)-based inhibitors against caspase-2 at lower doses, but with similar IC50 values; group 2 referred to VDVAD(SEQ ID NO:9)-based inhibitor with characteristic sigmoid dose-response; group 3 referred to pentapetidic-based inhibitors that were less active than VDVAD(SEQ ID NO:9)-based inhibitors against caspase-2 at lower doses and that exhibited higher IC50; conditions: for Group (pattern of caspase-2 inhibition curve) / IC50: Table 4; for IC50: 30 min pre-incubation, 2 h at 37° C.
T1 construct: purchased BIOMOL
T1 sequence (P42575 170-333 limits assumed): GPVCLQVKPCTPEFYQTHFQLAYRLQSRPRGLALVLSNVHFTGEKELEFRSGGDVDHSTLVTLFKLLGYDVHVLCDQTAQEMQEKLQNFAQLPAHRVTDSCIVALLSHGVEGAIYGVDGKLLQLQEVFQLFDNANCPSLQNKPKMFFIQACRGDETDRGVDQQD
T1 sequence (P42575 348-452 limits assumed): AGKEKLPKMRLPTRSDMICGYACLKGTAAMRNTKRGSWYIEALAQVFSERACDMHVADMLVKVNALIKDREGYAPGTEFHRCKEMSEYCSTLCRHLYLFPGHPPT
Method: Newly designed inhibitors (Ac-LDEAD(SEQ ID NO:7)-CHO, Ac-VDEAD(SEQ ID NO:1)-CHO . . . ) were compared to Ac-VDVAD(SEQ ID NO:9)-CHO in in vitro caspase-2 cleavage assay according to the following protocol (FIG. 8). Human recombinant caspases (25-50 U; QuantiZyme™ Assay System, BIOMOL, Plymouth, Pa., USA) were pre-incubated 30 min with inhibitors (0.005-2 μM) in final 100 μl final assay buffer (50 mM HEPES, pH 7.4, 100 mM NaCl, 0.1% CHAPS, 10 mM DTT, 1 mM EDTA, 10% glycerol) and then mixed with 200 μM of the fluorogenic caspase substrates (BIOMOL) Ac-VDVAD(SEQ ID NO:9)-AMC. An IC50 value corresponding to the concentration that could inhibit 50% of caspase activity was determined from the dose-response sigmoid curve. The cleavage of AMC-based substrates by human recombinant caspases 1-10 was measured after 2 h at 37° C. on a fluorescence microplate reader by monitoring emission at 510 nm upon excitation at 405 nm.

other caspases = experiment: In vitro cleavage assay on panel of human recombinant caspases (cross-reaction); conditions: at high doses
Method: Newly designed inhibitors (Ac-LDEAD(SEQ ID NO:7)-CHO, Ac-VDEAD(SEQ ID NO:1)-CHO) . . . ) were tested against a large panel of caspase (1 to 10) during in vitro cleavage assay according to the following protocol. Human recombinant caspases (25-50 U; Biomol) were pre-incubated 30 min with inhibitors (0.005-2 μM) in final 100 μl final assay buffer (50 mM HEPES, pH 7.4, 100 mM NaCl, 0.1% CHAPS, 10 mM DTT, 1 mM EDTA, 10% glycerol) and then mixed with 200 μM of their specific fluorogenic caspase substrates (BIOMOL) (Ac-YVAD(SEQ ID NO:23)-AMC (caspase-1), Ac-VDVAD(SEQ ID NO:9)-AMC (caspase-2), Ac-DEVD(SEQ ID NO:24)-AMC (caspase-3/-7), Ac-VEID(SEQ ID NO:25)-AMC (caspase-6), Ac-IETD(SEQ ID NO:26)-AMC (caspase-81-10)1Ac-LEHD(SEQ ID NO:27)-AMC (caspase-9). The cleavage of AMC-based substrates by human recombinant caspases 1-10 was measured after 2 h at 37° C. on a fluorescence microplate reader by monitoring emission at 510 nm upon excitation at 405 nm.

[2] = target: T2, Human recombinant calpain I (Homo sapiens, UniProt P07384); experiment: Calpain I inhibition assay; conditions: 2 μM
T2 construct: purchased Biomol
T2 sequence (P07384 1-714): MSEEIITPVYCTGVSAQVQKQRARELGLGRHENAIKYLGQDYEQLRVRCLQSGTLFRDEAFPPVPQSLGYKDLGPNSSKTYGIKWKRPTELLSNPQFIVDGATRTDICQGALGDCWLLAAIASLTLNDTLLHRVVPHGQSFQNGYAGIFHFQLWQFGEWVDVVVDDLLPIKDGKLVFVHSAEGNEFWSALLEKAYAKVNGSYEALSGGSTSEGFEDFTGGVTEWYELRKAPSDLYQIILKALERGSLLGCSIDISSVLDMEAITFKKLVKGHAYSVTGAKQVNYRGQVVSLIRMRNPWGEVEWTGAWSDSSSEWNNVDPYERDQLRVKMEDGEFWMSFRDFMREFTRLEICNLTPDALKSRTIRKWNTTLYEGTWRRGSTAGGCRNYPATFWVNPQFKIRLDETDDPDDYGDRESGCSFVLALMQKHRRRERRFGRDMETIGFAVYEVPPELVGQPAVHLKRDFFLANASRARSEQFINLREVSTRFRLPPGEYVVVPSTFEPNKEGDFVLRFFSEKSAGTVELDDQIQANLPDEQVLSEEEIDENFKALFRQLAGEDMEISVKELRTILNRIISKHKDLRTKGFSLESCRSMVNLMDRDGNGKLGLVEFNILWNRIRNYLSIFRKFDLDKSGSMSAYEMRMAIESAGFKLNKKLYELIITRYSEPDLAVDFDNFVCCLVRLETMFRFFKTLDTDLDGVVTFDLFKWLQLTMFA
T2 sequence (P04632 1-268 partner): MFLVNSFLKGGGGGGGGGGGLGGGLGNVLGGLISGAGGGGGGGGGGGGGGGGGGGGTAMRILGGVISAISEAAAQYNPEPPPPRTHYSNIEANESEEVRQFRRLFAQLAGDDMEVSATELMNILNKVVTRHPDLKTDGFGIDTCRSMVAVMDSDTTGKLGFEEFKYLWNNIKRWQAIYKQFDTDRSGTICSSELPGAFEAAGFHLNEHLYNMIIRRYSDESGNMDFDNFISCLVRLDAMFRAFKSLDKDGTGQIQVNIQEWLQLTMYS
Method: (§1) Additionally, specificity of newly designed inhibitors was checked against calpains and Granzyme B. Human recombinant calpain I (0.8 U) and rat recombinant calpain II (20 U) (both from Biomol) were pre-incubated 30 min with inhibitors in final 100 μl final assay buffer (50 mM HEPES, pH 7.4, 100 mM NaCl, 0.1% CHAPS, 5 mM CaCl2, 1 mM EDTA, 10% glycerol, 2 mM β-mercaptoethanol) and then mixed with 20 μM of the fluorogenic calpain substrates I or II (Calbiochem), respectively. ALLN and ALLM (1 μM) were internal controls for inhibition. The cleavage of substrates by recombinant enzymes was measured after 2 h at 37° C. on a fluorescence microplate reader by monitoring emission at 460 nm upon excitation at 380 nm for calpain I or emmission at 530 nm upon excitation at 485 nm for calpain II. Human granzyme B (50 U; Biomol) was pre-incubated 10 min with inhibitors in final 100 μl final granzyme assay buffer (Biomol) and then mixed with 400 μM of Ac-IEPD-pNA (Biomol). 3,4 DCIC (1 μM) was used as positive control for inhibition. The cleavage of substrate was measured after 1 h at 37° C. on a spectrophotometer at […]. Ac-IEPD-pNA is DEQ ID NO:29.

[3] = target: T3, rat recombinant calpain II (Rattus norvegicus, UniProt Q07009); experiment: Calpain II inhibition assay; conditions: 2 μM
T3 construct: purchased Biomol
T3 sequence (Q07009 1-700): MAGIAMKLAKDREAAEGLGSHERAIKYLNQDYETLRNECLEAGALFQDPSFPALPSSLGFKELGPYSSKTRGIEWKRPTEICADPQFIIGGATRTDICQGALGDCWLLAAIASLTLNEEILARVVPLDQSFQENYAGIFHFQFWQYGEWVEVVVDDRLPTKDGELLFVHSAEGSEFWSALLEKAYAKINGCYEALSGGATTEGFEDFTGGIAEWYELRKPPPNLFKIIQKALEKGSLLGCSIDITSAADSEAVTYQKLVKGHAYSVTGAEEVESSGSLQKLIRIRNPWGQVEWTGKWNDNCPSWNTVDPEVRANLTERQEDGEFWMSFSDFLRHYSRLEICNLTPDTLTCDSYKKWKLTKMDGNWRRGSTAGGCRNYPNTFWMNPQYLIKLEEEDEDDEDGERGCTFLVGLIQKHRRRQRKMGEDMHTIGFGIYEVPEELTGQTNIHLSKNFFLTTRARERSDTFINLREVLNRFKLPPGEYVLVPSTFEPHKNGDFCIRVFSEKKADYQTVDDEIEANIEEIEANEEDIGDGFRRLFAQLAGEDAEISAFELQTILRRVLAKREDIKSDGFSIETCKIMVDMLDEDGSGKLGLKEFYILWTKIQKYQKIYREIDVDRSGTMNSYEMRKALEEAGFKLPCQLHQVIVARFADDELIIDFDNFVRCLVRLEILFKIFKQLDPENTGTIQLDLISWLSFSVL
T3 sequence (Q64537 87-270 partner limits assumed): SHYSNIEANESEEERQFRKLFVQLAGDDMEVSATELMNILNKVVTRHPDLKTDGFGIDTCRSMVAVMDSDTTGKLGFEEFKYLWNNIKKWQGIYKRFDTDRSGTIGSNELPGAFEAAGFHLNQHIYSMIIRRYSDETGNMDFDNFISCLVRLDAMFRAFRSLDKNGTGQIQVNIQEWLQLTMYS
Method: as §1

Human granzyme B = target: T4, Human granzyme B (Homo sapiens, UniProt P10144); experiment: Granzyme B inhibition assay (Ac-IEPD-pNA); conditions: 2 μM
T4 construct: purchased Biomol
T4 sequence (P10144 21-247): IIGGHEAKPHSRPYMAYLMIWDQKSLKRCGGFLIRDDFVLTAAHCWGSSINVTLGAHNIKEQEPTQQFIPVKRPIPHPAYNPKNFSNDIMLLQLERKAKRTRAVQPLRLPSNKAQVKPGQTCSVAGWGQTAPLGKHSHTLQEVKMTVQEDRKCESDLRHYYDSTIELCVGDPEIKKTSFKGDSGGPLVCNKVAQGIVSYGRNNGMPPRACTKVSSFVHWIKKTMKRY
Method: as §1

SMILES	Group (pattern of caspase-2 inhibition curve) [1]	VDVAD-AMC cleavage by caspase-2 ([1]; recombinant caspase-2, FIG. 16)	inhibition of other caspases (cross-reaction) (other caspases)	IC50 [1] [nM]	inhibition of calpain I [2]	inhibition of calpain II [3]	inhibition of granzyme B (Human granzyme B)
CC(=O)N[C@H](C(=O)N[C@@H](CC(=O)O)C(=O)N[C@H](C(=O)N[C@@H](C)C(=O)N[C@H](C=O)CC(=O)O)C(C)C)C(C)C [Compound 8, Ac-VDVAD-cho, reference compound] (Ac-VDVAD-aldehyde)	2	blocked	less than 20%	–	–	–	–
CC(=O)N[C@@H](CC(C)C)C(=O)N[C@@H](CC(=O)O)C(=O)N[C@@H](CCC(=O)O)C(=O)N[C@@H](C)C(=O)N[C@H](C=O)CC(=O)O [Compound 14, Ac-LDEAD(SEQ ID NO:7)-cho] (Ac-LDEAD-aldehyde)	1	–	–	85 ± 6	not strong inhibitors	not strong inhibitors	not strong inhibitors
CC(=O)N[C@H](C(=O)N[C@@H](CC(=O)O)C(=O)N[C@@H](CCC(=O)O)C(=O)N[C@@H](C)C(=O)N[C@H](C=O)CC(=O)O)C(C)C [Compound 20, Ac-VDEAD(SEQ ID NO:1)-cho] (Ac-VDEAD-aldehyde)	1	–	–	85 ± 5	not strong inhibitors	not strong inhibitors	not strong inhibitors
